# Test results from patent US8932853B2, “Method for manufacturing pancreatic-hormone-producing cells” (Takeda Pharmaceutical Company Limited, priority 2009, dated 2015).
# Entries after “also recorded” stand apart in the source; their conditions may differ.
# B1: Wnt3a: differentiation-inducing factor generally used for endoderm induction along with activin A (protein, UniProt P56704 19-352, looked up)
# Protein Wnt-3a: SYPIWWSLAVGPQYSSLGSQPILCASIPGLVPKQLRFCRNYVEIMPSVAEGIKIGIQECQHQFRGRRWNCTTVHDSLAIFGPVLDKATRESAFVHAIASAGVAFAVTRSCAEGTAAICGCSSRHQGSPGKGWKWGGCSEDIEFGGMVSREFADARENRPDARSAMNRHNNEAGRQAIASHMHLKCKCHGLSGSCEVKTCWWSQPDFRAIGDFLKDKYDSASEMVVEKHRESRGWVETLRPRYTYFKVPTERDLVYYEASPNFCEPNPETGSFGTRDRTCNVSSHGIDGCDLLCCGRGHNARAERRREKCRCVFHWCCYVSCQECTRVYDVHTCK
# B2: Noggin: BMP antagonist (protein, UniProt Q13253 28-232, looked up)
# Noggin: QHYLHIRPAPSDNLPLVDLIEHPDPIFDPKEKDLNETLLRSLLGGHYDPGFMATSPPEDRPGGGGGAAGGAEDLAELDQLLRQRPSGAMPSEIKGLEFSEGLAQGKKQRLSKKLRRKLQMWLWSQTFCPVLYAWNDLGSRFWPRYVKVGSCFSKRSCSVPEGMVCKPSKSVHLTVLRWRCQRRGGQRCGWIPIQYPIISECKCSC
# Legend:
# [1] = system: endodermal cells induced from human iPS cells; format: cell-based; conditions: added simultaneously with dorsomorphin (1 μM) and retinoic acid (2 μM) day 3 to day 10; SB431542 5 μM, ALK5 inhibitor II 2 μM, A-83-01 0.2 μM, TGFβRI kinase inhibitor VIII 0.2 μM; vs dorsomorphin and retinoic acid alone
# Description: The dorsomorphin is an inhibitor of AMP-activated protein kinase (AMPK), and an inhibitor of ALK2, ALK3 and ALK6 from among activin receptor-like kinases (ALK). In addition, SB431542 is an inhibitor of ALK4, ALK5 and ALK7 from among ALKs.
# As a control, the medium was changed to one added with dorsomorphin and retinoic acid alone (Ctrl). […] After the culture, the expression level of NGN3, which is progenitor cells of pancreatic hormone-producing cells marker, was measured in the same manner as in Example 1.
# [2] = system: progenitor cells of pancreatic hormone-producing cells induced from human iPS cells; test: quantitative RT-PCR of insulin and PDX1 after step (4); format: cell-based; conditions: added in step (4) from day 10; forskolin 10 μM, nicotinamide 10 mM, dexamethasone 10 μM, ALK5 inhibitor II 5 μM; measured on day 12, 16 and 20; vs control without inducing factors
# Description: The expression level of PDX1, which is pancreatic progenitor cells marker, and insulin, which is pancreatic β cells (insulin-producing cells) marker, was measured in the same manner as in Example 1.
# The medium was changed once on day 7 of induction. […] The medium was changed every 3-4 days. After culture, the expression level of insulin was measured in the same manner as in Experimental Example 1.
# The medium was changed once on day 7 of induction. […] The medium was changed every 5 days.
# After culture under each condition, the expression levels of insulin in the cells on day 12 of differentiation induction, on day 16 of differentiation induction and day 20 of differentiation induction were measured in the same manner as in Example 1.
# [3] = system: progenitor cells of pancreatic hormone-producing cells induced from human iPS cells; test: immunofluorescent staining with anti-insulin antibody after step (4); format: cell-based; conditions: each added alone in step (4), day 10 to day 21; forskolin 10 μM, dibutyl cAMP 500 μM, IBMX 200 μM, ALK5 inhibitor II 5 μM, A-83-01 0.5 μM, SB431542 10 μM, TGFβRI kinase inhibitor VIII 2 μM, dexamethasone 10 μM, hydrocortisone 5 μM, betamethasone 2 μM, beclomethasone 1 μM
# [4] = system: endodermal cells induced from human iPS cells; test: immunofluorescent staining with anti-PDX1 antibody after step (3); conditions: added simultaneously with retinoic acid (2 μM) for 7 days, day 3 to day 10; Noggin 100 ng/ml, dorsomorphin 1 μM
# [5] = system: human iPS cells (253G1 strain); test: immunofluorescent staining with anti-SOX17 antibody on day 3 of differentiation induction; format: cell-based; conditions: added with activin A (100 ng/ml) for 1 day, then activin A alone 2 days, CHIR99021 3 μM, Wnt3a 25 ng/ml, SB415286 3 μM, SB216763 20 μM
# Description: To examine expression of SOX17 protein after culture for 3 days, immunofluorescent staining using an anti-SOX17 antibody was performed. After culture up to day 3 in the same manner as in FIG. 1, the cells were fixed with 2% para-formaldehyde (PFA) for 10 min and further for 20 min with 4% PFA at room temperature.
# Whether even use of a GSK3 inhibitor other than CHIR99021 in step (1) enables differentiation induction into endodermal cells was examined. The differentiation of human iPS cells into endodermal cells was induced according to the following method. […] Thereafter, the cells were washed with RPMI medium (GIBCO), and cultured for 1 day in RPMI medium containing various GSK3 inhibitors, activin A (100 ng/ml) and 2% fetal bovine serum (FBS). […] As a control, the cells were treated with a medium added only with activin A and free of GSK3 inhibitor. After culture for 1 day, the cells were washed with RPMI medium, and further cultured for 2 days in RPMI medium added with 2% FBS and 100 ng/ml activin A.
# To examine expression of SOX17 protein on day 3 of differentiation induction, immunofluorescent staining using an anti-SOX17 antibody was performed. 4% PFA was added to the cells on day 3 of culture under each condition, the mixture was incubated at room temperature for 30 min to fix the cells.
# [6] = system: human iPS cells (253G1 strain); test: quantitative RT-PCR of BRACHYURY and SOX17 during induction of human iPS cells into endodermal cells, steps (1)-(2); format: cell-based; conditions: added with activin A (100 ng/ml) only the first day, CHIR99021 3 μM, Wnt3a 25 ng/ml, relative to GAPDH
# Source text: As a first stage for induction of differentiation of human iPS cells (iPS cells obtained by introducing Oct3/4 gene, Klf4 gene and Sox2 gene: see Nat Biotechnol 2008; 26: 101-106) into pancreas cells (particularly pancreatic hormone-producing cells), differentiation of human iPS cells was induced into endodermal cells by using a 96 well plate.
# As the human iPS cells, 253G1 strain (iPS cell line produced by expressing OCT4/SOX2/KLF4 with retrovirus; Nature Biotechnology 26, 101-106) was used. Maintenance culture of the iPS cells in an undifferentiated state was performed using mitomycin-treated mouse fibroblast (MEFs) seeded on a gelatin-coated plate as feeder cells, and a medium for primate ES cells (ReproCELL Incorporated) added with 4 ng/ml bFGF (PeproTech EC) and 0.5× Penicillin-streptomycin (SIGMA) as a medium at 37° C. under 5% CO2. The medium was changed every day, the cell mass was detached every 4-5 days using a cell detachment solution for primate ES cell (ReproCELL Incorporated), and passaged by seeding on new feeder cells.
# As a preculture for differentiation induction into endodermal cells, undifferentiated iPS cells were seeded in a 96 well plate. First, iPS cells maintained in a cell mass was treated with 0.25% trypsin-1 mM EDTA solution (GIBCO) and dissociated until they became single cells. Then, iPS cells dispersed in a medium were seeded in a 96 well plate at a density of 2×10^4 cells per well and cultured at 37° C. under 5% CO2 for 1 day. The 96 well plate used had been gelatin-coated, seeded with 5×10^3 MEFs and cultured at 37° C. under 5% CO2 for 5 hr. In addition, as a culture medium for seeding, a medium for primate ES cells added with 10 μM Y-27632 (Wako Pure Chemical Industries, Ltd.) was used. One day after seeding, the medium was changed to a medium for primate ES cells without Y-27632, and the cells were further cultured for 2 days until they became confluent.
# Differentiation of iPS cells into endodermal cells was induced according to the following method. First, the confluent cells were washed with RPMI medium (GIBCO), RPMI medium containing various differentiation-inducing factors and 2% fetal bovine serum (FBS) was added, and the mixture was cultured for 1 day. […]
# To examine variation in the expression of endoderm differentiation marker when cultured under each condition, differentiation-induced cells were recovered over time, and the total RNA fractions were purified using RNeasy96 (Qiagen). Using a PrimeScript RT reagent kit (Takara Bio Inc.), cDNA was synthesized, and quantitative RT-PCR was performed, whereby the gene expression level of BRACHYURY, which is a primitive streak marker, and SOX17, which is an endodermal marker, was measured.
molecule,measurement,setting,value
"Cc1cccc(-c2n[nH]cc2-c2ccc3ncccc3n2)n1 [ALK5 inhibitor II, 2-[3-[6-methylpyridin-2-yl]-1H-pyrazol-4-yl]-1,5-naphthyridine]",expression level of NGN3,[1],increased remarkably
same,expression level of insulin,[2],increased markedly; also recorded: high value
same,positive rate of insulin-expressing cells,[3],remarkably increased; also recorded: induced differentiation into insulin-positive cells with high efficiency
"c1cc(-c2cnn3cc(-c4ccc(OCCN5CCCCC5)cc4)cnc23)ccn1 [dorsomorphin, 6-[4-(2-piperidin-1-ylethoxy)phenyl]-3-pyridin-4-ylpyrazolo[1,5-a]pyrimidine]",differentiation into PDX1-positive cells,[4],remarkably induced; also recorded: many cells were induced into PDX1-positive cells
B1,ratio of cells expressing SOX17 protein,[5],a part of the cells also expressed SOX17 protein; also recorded: remarkably detected
same,expression level of SOX17 (endodermal marker),"[6]; then activin A alone 2 days, days 2-3",also lower than with a treatment with CHIR99021; also recorded: high value
same,expression level of BRACHYURY (primitive streak marker),[6]; day 1 of differentiation induction,lower than with a treatment with CHIR99021
B2,differentiation into PDX1-positive cells,[4],remarkably induced; also recorded: many cells were induced into PDX1-positive cells
